Measurements taken from the supplement of paper PMC10307832.

Columns and labels:
Test in all cases: relative viability (nuclei count vs DMSO), 5 days (fraction); higher = more cells survive
[1] = compound: O=C(Nc1cccc(C(F)(F)F)c1)Nc1cc(S(=O)(=O)NC2CC2)ccc1-c1ccsc1 [AGI-6780] + N=C(N)NC(=N)NCCc1ccccc1 [Phenformin] (partner 250 µM)
Procedure, shortened: (§1)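 Dosing by pin tool came one day after lung cancer cell lines were seeded in 1536-well plates, using either one drug or a fixed anchor-drug dose plus five library-drug doses (not always all listed) in √10 steps. After 5 days, nuclei were counted on 4× images. Relative viability is treated-well nuclei count divided by vehicle-well nuclei count, and values are medians of duplicate plates.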

[2] = compound: O=C(Nc1cccc(C(F)(F)F)c1)Nc1cc(S(=O)(=O)NC2CC2)ccc1-c1ccsc1 [AGI-6780] + COc1cccc2cc(-c3nc([C@H]4CC[C@H](C(=O)O)CC4)n4ncnc(N)c34)[nH]c12 [OSI-027] (partner 0.5 µM)
Procedure, shortened: as §1

[3] = compound: O=C(Nc1cccc(C(F)(F)F)c1)Nc1cc(S(=O)(=O)NC2CC2)ccc1-c1ccsc1 [AGI-6780] + C[C@@H](Oc1cc(-c2cnn(C3CCNCC3)c2)cnc1N)c1c(Cl)ccc(F)c1Cl [Crizotinib] (partner 1 µM)
Procedure, shortened: as §1

[4] = compound: O=C(Nc1cccc(C(F)(F)F)c1)Nc1cc(S(=O)(=O)NC2CC2)ccc1-c1ccsc1 [AGI-6780] + CC(=O)Nc1cccc(-n2c(=O)n(C3CC3)c(=O)c3c(Nc4ccc(I)cc4F)n(C)c(=O)c(C)c32)c1 [Trametinib] (partner 0.02 µM)
Procedure, shortened: as §1

Cell Line | relative viability ([1]; first compound 0.08 µM) | relative viability ([1]; first compound 0.253 µM) | relative viability ([1]; first compound 0.8 µM) | relative viability ([1]; first compound 2.53 µM) | relative viability ([1]; first compound 8 µM) | relative viability ([2]; first compound 0.08 µM) | relative viability ([2]; first compound 0.253 µM) | relative viability ([2]; first compound 0.8 µM) | relative viability ([2]; first compound 2.53 µM) | relative viability ([2]; first compound 8 µM) | relative viability ([3]; first compound 0.08 µM) | relative viability ([3]; first compound 0.253 µM) | relative viability ([3]; first compound 0.8 µM) | relative viability ([3]; first compound 2.53 µM) | relative viability ([3]; first compound 8 µM) | relative viability ([4]; first compound 0.08 µM) | relative viability ([4]; first compound 0.253 µM) | relative viability ([4]; first compound 0.8 µM) | relative viability ([4]; first compound 2.53 µM) | relative viability ([4]; first compound 8 µM)
201T | 0.495 | 0.41 | 0.486 | 0.427 | 0.492 | 0.713 | 0.694 | 0.723 | 0.325 | 0.753 | 1.04 | 1.04 | 1.01 | 1.03 | 1.05 | 0.705 | 0.731 | 0.715 | 0.72 | 0.773
A-427 | 0.326 | 0.294 | 0.359 | 0.315 | 0.338 | 0.477 | 0.458 | 0.507 | 0.384 | 0.509 | 1.02 | 0.897 | 1.06 | 0.693 | 0.901 |  | 0.7 | 0.797 | 0.559 | 0.725
ABC-1 | 0.218 | 0.263 | 0.238 | 0.263 | 0.197 | 0.469 | 0.524 | 0.688 | 0.55 | 0.595 | 1.1 | 1.17 | 1.69 | 1.2 | 0.978 |  |  |  |  | 
BEN | 0.25 | 0.281 | 0.289 | 0.288 | 0.28 | 0.311 | 0.298 | 0.321 | 0.28 | 0.304 | 0.891 | 0.738 | 0.955 |  | 0.966 | 0.897 | 0.999 | 1.14 |  | 0.993
CAL-12T | 0.61 | 0.579 | 0.626 | 0.632 | 0.566 | 0.748 | 0.76 | 0.693 | 0.428 | 0.519 | 0.686 | 0.681 | 0.61 | 0.87 | 0.716 | 0.307 | 0.425 | 0.306 | 0.309 | 0.321
COR-L23 | 0.457 | 0.489 | 0.424 | 0.408 | 0.506 | 0.743 | 0.77 | 0.705 | 0.527 | 0.784 | 0.678 | 0.622 | 0.564 | 0.754 | 0.617 | 0.601 | 0.536 | 0.529 | 0.379 | 0.568
COR-L 105 | 0.407 | 0.461 | 0.507 | 0.524 | 0.539 | 0.783 | 0.669 | 0.719 | 0.582 | 0.72 | 0.899 | 0.738 | 1.01 | 0.708 | 0.848 | 0.465 | 0.576 | 0.464 | 0.397 | 0.351
Calu-6 |  |  |  |  |  |  |  |  |  |  | 0.822 | 0.829 | 0.948 | 0.824 | 0.752 |  |  |  |  | 
ChaGo-K-1 | 0.494 | 0.562 | 0.503 | 0.452 | 0.543 | 0.521 | 0.613 | 0.577 | 0.42 | 0.547 | 1.18 | 1.06 | 1.43 | 0.959 | 1.14 | 0.876 | 0.799 | 0.888 | 0.815 | 0.871
EBC-1 |  |  |  |  |  |  |  |  |  |  | 0.199 | 0.184 | 0.186 | 0.175 | 0.183 |  |  |  |  | 
EKVX | 0.23 | 0.245 | 0.252 | 0.25 | 0.251 | 0.663 | 0.665 | 0.721 | 0.649 | 0.716 | 0.904 | 0.813 | 1.15 | 0.888 | 1.07 | 0.32 | 0.383 | 0.392 | 0.386 | 0.312
EMC-BAC-2 | 0.57 | 0.602 | 0.508 | 0.456 | 0.531 | 0.383 | 0.384 | 0.338 | 0.301 | 0.427 | 0.791 | 0.728 | 0.763 | 0.668 | 0.78 |  | 0.909 | 0.896 | 0.752 | 0.842
EPLC-272H |  | 0.341 | 0.243 | 0.28 | 0.274 |  | 0.282 | 0.247 | 0.245 | 0.293 | 0.888 | 0.929 | 0.841 | 0.714 | 0.791 | 0.285 | 0.328 | 0.291 | 0.254 | 0.312
H3255 | 0.39 | 0.381 | 0.384 | 0.358 | 0.385 | 0.667 | 0.55 | 0.551 | 0.523 | 0.584 | 0.884 | 0.848 | 0.997 | 0.84 | 0.921 | 0.595 | 0.592 | 0.668 |  | 0.609
HARA | 0.402 | 0.483 | 0.436 | 0.324 | 0.399 | 0.573 | 0.594 | 0.339 | 0.197 | 0.514 | 1.05 | 1.08 | 0.894 | 1.01 | 1.07 | 1.02 | 0.638 | 0.685 | 0.707 | 0.628
HCC-15 | 0.551 | 0.525 | 0.505 | 0.428 | 0.47 | 0.743 | 0.763 | 0.783 | 0.458 | 0.725 | 0.831 | 0.833 | 0.834 | 0.813 | 0.825 | 0.369 | 0.426 | 0.349 | 0.309 | 0.369
HCC-44 | 0.182 | 0.202 | 0.354 | 0.175 | 0.257 | 0.628 | 0.719 | 0.477 | 0.47 | 0.594 | 0.769 | 0.811 | 0.82 | 0.855 | 0.821 | 1.08 | 0.993 | 1.1 | 0.994 | 1.07
HCC-78 |  | 0.735 | 0.814 | 0.716 | 0.607 |  | 0.37 | 0.431 | 0.364 | 0.355 | 0.378 | 0.337 | 0.422 | 0.353 | 0.343 | 0.824 | 0.629 | 0.925 | 0.924 | 0.775
